Assay results taken from patent publication US20240209011A1, “HETEROAROMATIC PHOSPHONIUM SALTS FOR TREATING CANCER” (FLORATEK PHARMA S.A., priority 2021, published 2024).

Key:
Format in all cases: cell-based
pancreatic cancer cell = test: Activity against pancreatic cancer cells; conditions: pancreatic cancer cell growth; Table 19A
Protocol: (§1) Antitumor activity of the compounds and doxorubicin as a positive control was assessed by using the CellTiter-Blue Cell Viability Assay (Promega, #G8082) or CellTiter-Glow® Luminescent Cell Viability assay (Promega #G7572) according to the manufacturer's instructions. The compounds were tested at 5 or 6 concentrations in half-log increments (highest concentration 30 μM or 100 μM) in duplicate or triplicate well conditions.
(§2) Tumor cells were grown at 37° C. in a humidified atmosphere with 5% CO2 in RPMI 1640 or DMEM medium, supplemented with 10% (v/v) fetal calf serum and 50 μg/ml gentamicin for up to 20 passages, and were passaged once or twice weekly. Cells were harvested using TrypLE or PBS buffer containing 1 mM EDTA, and the percentage of viable cells is determined using a CASY Model TI cell counter (OMNI Life Science). Cells were harvested from exponential phase cultures, counted and plated in 96 well flat-bottom microtiter plates at a cell density depending on the cell line's growth rate (4,000-20,000 cells/well depending on the cell line's growth rate, up to 60,000 for hematological cancer cell lines) in RPMI 1640 or DMEM medium supplemented with 10% (v/v) fetal calf serum and 50 μg/ml gentamicin (140 μl/well). Cultures were incubated at 37° C. and 5% CO2 in a humidified atmosphere. After 24 h, 10 μl of test compounds or control medium were added, and left on the cells for another 72 h. Compounds were serially diluted in DMSO, transferred in cell culture medium, and added to the assay plates. The DMSO concentration was kept constant at <0.3% v/v across the assay plate. Viability of cells was quantified by the CellTiter-Blue® cell viability assay (Promega G8081) or CellTiter-Glow® Luminescent Cell Viability assay (Promega #G7572). Fluorescence (FU) was measured by using the EnSpire® multimode plate reader (Perkin Elmer) (excitation X=570 nm, emission λ=600 nm). Luminescence was measured with a microplate luminometer (Promega or PerkinElmer).
(§3) Sigmoidal concentration-response curves were fitted to the data points (test-versus-control, T/C values) obtained for each tumor model using 4 parameter non-linear curve fit (Charles River DRS Datawarehouse Software) or with GraphPad prism 5.02 software. IC50 values are reported as absolute IC50 values, being the concentration of test compound at the intersection of the concentration-response curves with T/C=50% Cell lines tested are presented in Table 1.

ovarian cancer cell = test: Activity against ovarian cancer cells; conditions: ovarian cancer cell growth; Tables 18A-18C
Protocol: as §1, §2, §3

colon cancer cell = test: Activity against colon cancer cells; conditions: colon cancer cell growth; summary of Tables 7A-7D
Protocol: as §1, §2, §3

brain cancer cell = test: Activity against brain cancer cells; conditions: brain cancer cell growth; Tables 4A-4D
Protocol: as §1, §2, §3

PC-3 = test: Cell viability assay (CellTiter-Blue/CellTiter-Glow); conditions: Homo sapiens; prostate carcinoma cell line PC-3; absolute IC50; 72 h
Protocol: as §1, §2, §3

LoVo = test: as above; conditions: Homo sapiens; colon carcinoma cell line LoVo; absolute IC50; 72 h
Protocol: as §1, §2, §3

MDA-MB-468 = test: as above; conditions: Homo sapiens; breast carcinoma cell line MDA-MB-468; absolute IC50; 72 h
Protocol: as §1, §2, §3

HCT-116 = test: as above; conditions: Homo sapiens; colon carcinoma cell line HCT-116; absolute IC50; 72 h
Protocol: as §1, §2, §3

LNCaP = test: as above; conditions: Homo sapiens; prostate carcinoma cell line LNCaP; absolute IC50; 72 h
Protocol: as §1, §2, §3

MCF-7 = test: as above; conditions: Homo sapiens, MCF7; breast carcinoma cell line MCF-7; absolute IC50; 72 h
Protocol: as §1, §2, §3

HL-60 = test: as above; conditions: Homo sapiens; leukaemia cell line HL-60; absolute IC50; 72 h
Protocol: as §1, §2, §3

22Rv1 = test: as above; conditions: Homo sapiens; prostate carcinoma cell line 22Rv1; absolute IC50; 72 h
Protocol: as §1, §2, §3

breast cancer cell = test: Activity against breast cancer cells; conditions: breast cancer cell growth; Tables 5A and B
Protocol: as §1, §2, §3

prostate cancer cell = test: Activity against prostate cancer cells; conditions: prostate cancer cell growth; text summary of Table 21
Protocol: as §1, §2, §3

leukaemia cell = test: Activity against leukaemia cells; conditions: leukaemia cell growth; Tables 13A and 13B
Protocol: as §1, §2, §3

Compound | IC50 (pancreatic cancer cell) [µM] | IC50 (ovarian cancer cell) [µM] | IC50 (colon cancer cell) [µM] | IC50 (brain cancer cell) [µM] | IC50 (PC-3) [µM] | IC50 (LoVo) [µM] | IC50 (MDA-MB-468) [µM] | IC50 (HCT-116) [µM] | IC50 (LNCaP) [µM] | IC50 (MCF-7) [µM] | IC50 (HL-60) [µM] | IC50 (22Rv1) [µM] | IC50 (breast cancer cell) [µM] | IC50 (prostate cancer cell) [µM] | IC50 (leukaemia cell) [µM]
O=c1cc(-c2ccc(CCCC[P+](c3ccccc3)(c3ccccc3)c3ccccc3)cc2)oc2c(O)c(O)ccc12 [SND118, 4-[4-(7,8-dihydroxy-4-oxo-chromen-2-yl)phenyl]butyltriphenyl-phosphonium bromide] | < 20 | < 20 | < 20 | < 20 | 5.3 | 7.9 | 0.32 | 1.53 | 1.87 | 0.86 | 0.29 | 5.1 | < 20 | < 10 | < 20
O=c1cc(-c2ccc(CCCC[P+](c3ccccc3)(c3ccccc3)c3ccccc3)cc2)oc2c3c(ccc12)OCO3.[Br-] [SND123, 4-[4-(6-oxo-[1,3]dioxolo[4,5-h]chromen-8-yl)phenyl]butyl-triphenylphosphonium bromide] | < 20 | < 20 | < 20 | < 20 | 1.89 | 1.7 | 0.36 | 2.25 | 1.37 | 6.87 | 1.08 | 1.49 | < 20 | < 10 | < 20
CCNC(=O)Oc1ccc2c(=O)cc(-c3ccc(CCCC[P+](c4ccccc4)(c4ccccc4)c4ccccc4)cc3)oc2c1OC(=O)NCC.[Br-] [SND124, 4-[4-[7,8-Bis(ethylcarbamoyloxy)-4-oxo-chromen-2-yl]phenyl]-butyltriphenylphosphonium bromide] | < 20 | < 20 | < 20 | < 20 | 6.3 | 21.4 | 0.5 | 4.2 | 4 | 2 | 0.29 | 3.4 | < 20 | < 10 | < 20
CCNC(=O)Oc1ccc2c(=O)cc(-c3ccc(CCCC[P+](c4ccccc4)(c4ccccc4)c4ccccc4)cc3)oc2c1O.[Br-] [SND126A, 4-[4-[7-(Ethylcarbamoyloxy)-8-hydroxy-4-oxo-chromen-2-yl]phenyl]butyltriphenylphosphonium bromide] | < 20 | < 20 | < 20 | < 20 | 2.91 | 2.94 | 0.56 | 3.56 | 1.95 | 12.9 | 0.58 | 2.39 | < 20 | < 10 | < 20
CC(C)NC(=O)Oc1ccc2c(=O)cc(-c3ccc(CCCC[P+](c4ccccc4)(c4ccccc4)c4ccccc4)cc3)oc2c1O [SND127, 4-[4-[7-(Isopropylcarbamoyloxy)-8-hydroxy-4-oxo-chromen-2-yl]phenyl]butyltriphenylphosphonium bromide] | < 20 | < 20 | < 20 | < 20 | 5.5 | 8.4 | 0.6 | 6.2 | 2 | 6.7 | 1.54 | 3.3 | < 20 | < 10 | < 20
COc1c(O)ccc2c(=O)cc(-c3ccc(CCCC[P+](c4ccccc4)(c4ccccc4)c4ccccc4)cc3)oc12.[Br-] [SND140, (4-(4-(7-hydroxy-8-methoxy-4-oxo-4H-chromen-2-yl)phenyl)butyl)triphenylphosphonium bromide] | < 20 | < 20 | < 20 | < 20 | 8.31 | 16.3 | 2.8 | 10.6 | 6.23 | 4.3 | 0.9 | 9 | < 20 | < 10 | < 20
